Assay results taken from patent publication US6368651B1, “Use of additives to modify the taste characteristics of N-neohexyl-α-aspartyl-L-phenylalanine methyl ester” (The NutraSweet Company, priority 1999, dated 2002).

How the values were obtained:
[1] = Taste evaluation in neotame-sweetened cola-flavored beverage; conditions: serine 50 ppm; cola
Procedure: When a neotame salt was used as a taste modifying/sweetening ingredient, the neotame salt as added in an amount sufficient to provide about 15 ppm to about 25 ppm neotame (e.g., about 0.0028 g of a potassium neotame salt would be used to provide 100 ml of a 25 ppm neotame solution). The taste modifying ingredient was dissolved in the sweetened beverage and the beverage was allowed to stand overnight at room temperature prior to evaluation. Evaluations of the cola-flavored beverages were conducted using a beverage containing water, sodium benzoate (0.16%), phosphoric acid (0.22%), citric acid (0.05%), trisodium citrate (0.08%), caffeine (0.03%), Flavor 28 (1.72%), sweetened with neotame in an amount of about 0.0015% to about 0.0025% (15 ppm to 25 ppm), adjusted to pH 3.2 using sodium citrate.

[2] = Taste evaluation in neotame-sweetened strawberry-flavored yogurt; conditions: serine 25 ppm
[3] = Taste evaluation in neotame-sweetened reconstituted powdered soft drink; conditions: serine 5 ppm to 30 ppm; reconstituted strawberry-flavored powdered soft drink

Measured: taste characteristic imparted by neotame

N[C@@H](CO)C(=O)O [serine]
positively affected: all assays above
